Literature values as cited in US20230263777A1, “STABLE SOLID FORMULATION OF AZILSARTAN OR PHARMACEUTICALLY ACCEPTABLE SALTS THEREOF” (PIRAMAL PHARMA LIMITED, priority 2020, published 2023).

CCOc1nc2cccc(C(=O)OCc3oc(=O)oc3C)c2n1Cc1ccc(-c2ccccc2-c2noc(=O)[nH]2)cc1 [Azilsartan kamedoxomil, (5-methyl-2-oxo-2H-1,3-dioxol-4-yl)methyl 2-ethoxy-1-({4-[2-(5-oxo-4,5-dihydro-1,2,4-oxadiazol-3-yl)phenyl]phenyl}methyl)-1H-1,3-benzodiazole-7-carboxylate]
Solubility in methanol (methanol): freely soluble | Solubility in water (water): practically insoluble
